# Experiments:
# E. coli BL21(DE3)/pAW31 = test: Whole cell biocatalysis with E. coli overexpressing LovD; type: cell-based, Escherichia coli; conditions: 0.5 mM lovastatin (sodium salt form)
# Method: The BL21(DE3)/pAW31 overexpression strain was grown in a shake flask (200 mL) to an OD600 of 1.0, at which time 1 mM IPTG, 0.8 mM monacolin J and 4 mM of either benzoyl-SNAC or benzoyl-SMTG were added to the culture. Expression of LovD and bioconversion was performed at 18° C. The culture was extracted and analyzed for the formation of 8-benzoyl-monacolin J. When supplemented with benzoyl-SNAC, 84% conversion of monacolin J was detected within 20 hours post-induction. The product was lactonized and purified by a single silica-gel chromatography step. The NMR spectra confirmed the regioselective benzoylation of the C8 hydroxyl group as the diagnostic H8 multiplet is shifted downfield to δ 5.61.
# Fermentation conditions: 500 mL culture with LB media with 30 mg/L kanamycin. At OD600 of 1.0, cells were concentrated to a final OD600 of 5.0 and induced with 1 mM IPTG. Substrates monacolin J and α-dimethylbutyryl-SNAC were added to a final concentration of 1 mM and 4 mM. At different time points, culture samples were collected, centrifuged, filtered and injected on to HPLC (20 μL). Extraction conditions: When maximum conversion was reached, the broth was acidified to pH of 2.0, extracted with ethyl acetate, dried and redissolved in toluene.
# Whole-cell catalytic synthesis of simvastatin acid from MJ acid and DMB-S-MMP were performed as described (see, e.g., Xie et al., (2007) Appl Environ Microbiol 73: 2054-2060). The E. coli BL21(DE3)/pAW31 and YT2/pAW31 strains were cultured side-by-side for comparison. A single colony of the freshly transformed strains was used to inoculate a 5 mL LB culture supplemented with 35 mg/L kanamycin and grown overnight at 37° C. The next morning, 100 μL of the overnight culture was inoculated into 50 mL cultures containing LB broth, F1 minimal medium and F1 medium supplemented with 0.15 mg/L biotin. Growth rates were monitored by periodically measuring the OD600 reading. When OD600 reached ˜0.5, 100 μM IPTG was added to the culture and expression of LovD was performed at 20° C. for 16 hours. To mimic high density fermentation conditions, the cells were concentrated 10-fold before addition of substrates. Typically, a 14 mL aliquot of the culture was transferred to a 15 mL centrifuge tube and the cells were collected by centrifugation (4° C., 4000 g, 10 minutes). The cell pellet was gently resuspended in 1316 μl of the supernatant, followed by addition of 84 μl of a MJ acid stock solution (250 mM in H2O) (final concentration 15 mM). The concentrated culture was then separated into seven 200 μL samples and 1.2 μL of pure DMB-S-MMP was added to each sample (final concentration ˜25 mM). The culture was then shaken at 300 rpm at room temperature. At each time point, a total extraction was performed by adding 10 μL 20% SDS to lyse the cells, followed by liquid-liquid extraction with 500 μL EA/1% AcOH. The organic phase was removed, evaporated, and redissolved in 50 μL ACN for HPLC analysis. For the BL21(DE3) sample, an additional 1.2 μL aliquot of DMB-S-MMP was added after 12 hours to replenish the hydrolyzed substrates.
# The E. coli BL21(DE3)/pAW31 strain was grown in LB medium at 37° C. to an OD600 of 0.5, at which time 100 μM IPTG was added to the culture and expression was performed at RT for 16 hours. A 10 ml culture was transferred to a 15 mL centrifuge tube. The cells were collected by centrifugation (4000 g, 10 minutes). The cell pellet was resuspended in 957 μl of the supernatant. The pH was adjusted to pH 7.9 with 1.0 N NaOH, followed by addition of 33 μl 450 mM MJ (final concentration 15 mM) and 6 μl pure DMB-S-MMP (final concentration ˜25 mM). The culture was then shaken at 300 rpm at room temperature. At each time point, a 4 μL aliquot was removed from the reaction mixture, quenched in 300 μL ethyl acetate containing 1% TFA.
# LovD = target: T1, LovD (Aspergillus terreus, UniProt Q9Y7D1); design: 6xHis (N); made in house; host or cells: E. coli BL21(DE3)/pAW31 (pET28a); conditions: Xie et al., 2006; cited from earlier work
# T1 sequence (Q9Y7D1 1-413): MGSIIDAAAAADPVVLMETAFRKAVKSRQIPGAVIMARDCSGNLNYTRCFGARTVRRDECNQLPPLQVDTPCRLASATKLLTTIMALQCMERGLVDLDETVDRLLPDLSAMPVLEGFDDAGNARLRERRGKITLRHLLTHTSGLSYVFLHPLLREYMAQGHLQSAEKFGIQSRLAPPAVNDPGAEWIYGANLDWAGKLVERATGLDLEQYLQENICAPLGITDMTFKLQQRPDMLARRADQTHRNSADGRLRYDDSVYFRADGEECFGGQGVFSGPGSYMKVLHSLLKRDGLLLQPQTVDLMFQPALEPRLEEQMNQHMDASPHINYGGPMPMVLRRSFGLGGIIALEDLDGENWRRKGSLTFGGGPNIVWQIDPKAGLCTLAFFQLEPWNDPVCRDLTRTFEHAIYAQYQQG
compound,measurement,setting,value
"CC[C@H](C)C(=O)O[C@H]1C[C@@H](C)C=C2C=C[C@H](C)[C@H](CC[C@@H]3C[C@@H](O)CC(=O)O3)[C@H]21 [lovastatin, reference compound]",conversion rate of whole cell hydrolysis,E. coli BL21(DE3)/pAW31,~0.01 mM per hour
same,hydrolysis to monacolin J by whole cells,E. coli BL21(DE3)/pAW31; 48 hours,91%
same,kcat of LovD hydrolysis of lovastatin into monacolin J in vitro (previously reported),LovD,0.0035 s⁻¹
